Measured values: the NIST ThermoML archive (doi:10.1021/je034223r)
Numbers after ± are expanded uncertainties.

Columns and labels:
[1] = heat capacity at constant pressure per volume; xn = mol fraction of the nth substance listed; conditions: 298.15 K, 101.3 kPa, Liquid, Flow calorimetry
[2] = refractive index (Na D-line) (dimensionless); xn = mol fraction of the nth substance listed; conditions: 298.15 K, 101.3 kPa, Liquid, refractometer
[3] = excess molar enthalpy (molar enthalpy of mixing); xn = mol fraction of the nth substance listed; conditions: 298.15 K, 101.3 kPa, Liquid, Flow calorimetry
[4] = xn = mol fraction of the nth substance listed; conditions: 298.15 K, 101.3 kPa, Liquid, vibrating tube

CCCC(C)=O [pentan-2-one] + C1COCO1
Conditions	excess molar enthalpy [kcal/mol]	heat capacity [J/K/m3]	mass density [kg/m3]	refractive index
[1], x2 = 0.0638	–	1709600 ± 2600	–	–
[1], x2 = 0.1404	–	1711100 ± 2700	–	–
[1], x2 = 0.2192	–	1712900 ± 2700	–	–
[1], x2 = 0.2981	–	1714700 ± 2700	–	–
[1], x2 = 0.3819	–	1716700 ± 2700	–	–
[1], x2 = 0.4598	–	1719100 ± 2700	–	–
[1], x2 = 0.5386	–	1721800 ± 2700	–	–
[1], x2 = 0.6171	–	1724700 ± 2700	–	–
[1], x2 = 0.6915	–	1727300 ± 2700	–	–
[1], x2 = 0.7737	–	1730500 ± 2700	–	–
[1], x2 = 0.8546	–	1733700 ± 2700	–	–
[1], x2 = 0.9324	–	1736700 ± 2700	–	–
[2], x2 = 0.0759	–	–	–	1.3885 ± 0.00021
[2], x2 = 0.1654	–	–	–	1.38924 ± 0.00021
[2], x2 = 0.2333	–	–	–	1.38982 ± 0.00021
[2], x2 = 0.3134	–	–	–	1.39054 ± 0.00021
[2], x2 = 0.3532	–	–	–	1.39091 ± 0.00021
[2], x2 = 0.3984	–	–	–	1.39134 ± 0.00021
[2], x2 = 0.431	–	–	–	1.39166 ± 0.00021
[2], x2 = 0.4741	–	–	–	1.39208 ± 0.00021
[2], x2 = 0.5178	–	–	–	1.39252 ± 0.00021
[2], x2 = 0.5578	–	–	–	1.39293 ± 0.00021
[2], x2 = 0.5924	–	–	–	1.39329 ± 0.00021
[2], x2 = 0.6321	–	–	–	1.39372 ± 0.00021
[2], x2 = 0.6761	–	–	–	1.39419 ± 0.00021
[2], x2 = 0.7128	–	–	–	1.3946 ± 0.00021
[2], x2 = 0.7928	–	–	–	1.3955 ± 0.00021
[2], x2 = 0.9448	–	–	–	1.3973 ± 0.00021
[3], x2 = 0.1	0.0128 ± 0.000311	–	–	–
[3], x2 = 0.15	0.0196 ± 0.000359	–	–	–
[3], x2 = 0.2	0.0266 ± 0.000406	–	–	–
[3], x2 = 0.25	0.0329 ± 0.000454	–	–	–
[3], x2 = 0.3	0.0375 ± 0.000478	–	–	–
[3], x2 = 0.35	0.0424 ± 0.000526	–	–	–
[3], x2 = 0.4	0.0462 ± 0.00055	–	–	–
[3], x2 = 0.45	0.0492 ± 0.000574	–	–	–
[3], x2 = 0.5	0.0504 ± 0.000574	–	–	–
[3], x2 = 0.55	0.0506 ± 0.000574	–	–	–
[3], x2 = 0.6	0.0498 ± 0.000574	–	–	–
[3], x2 = 0.65	0.0479 ± 0.000574	–	–	–
[3], x2 = 0.7	0.0449 ± 0.00055	–	–	–
[3], x2 = 0.75	0.0407 ± 0.000502	–	–	–
[3], x2 = 0.8	0.0353 ± 0.000478	–	–	–
[3], x2 = 0.85	0.0286 ± 0.00043	–	–	–
[3], x2 = 0.9	0.0205 ± 0.000382	–	–	–
[4], x2 = 0.0882	–	–	816.74 ± 0.42	–
[4], x2 = 0.1647	–	–	830.91 ± 0.43	–
[4], x2 = 0.2307	–	–	843.79 ± 0.43	–
[4], x2 = 0.3499	–	–	868.72 ± 0.44	–
[4], x2 = 0.3798	–	–	875.35 ± 0.45	–
[4], x2 = 0.4314	–	–	887.14 ± 0.45	–
[4], x2 = 0.4631	–	–	894.63 ± 0.46	–
[4], x2 = 0.5169	–	–	907.82 ± 0.46	–
[4], x2 = 0.5183	–	–	908.18 ± 0.46	–
[4], x2 = 0.5529	–	–	916.98 ± 0.47	–
[4], x2 = 0.5897	–	–	926.62 ± 0.47	–
[4], x2 = 0.6338	–	–	938.59 ± 0.48	–
[4], x2 = 0.6667	–	–	947.78 ± 0.48	–
[4], x2 = 0.7131	–	–	961.29 ± 0.49	–
[4], x2 = 0.7174	–	–	962.55 ± 0.49	–
[4], x2 = 0.7909	–	–	985.17 ± 0.5	–
[4], x2 = 0.8704	–	–	1011.41 ± 0.52	–
[4], x2 = 0.9486	–	–	1039.18 ± 0.53	–

O=C1CCCC1 [cyclopentanone] + C1COCO1
Conditions	excess molar enthalpy [kcal/mol]	heat capacity [J/K/m3]	mass density [kg/m3]	refractive index
[1], x2 = 0.0645	–	1713700 ± 2700	–	–
[1], x2 = 0.1429	–	1716000 ± 2700	–	–
[1], x2 = 0.3008	–	1720700 ± 2700	–	–
[1], x2 = 0.3817	–	1723100 ± 2700	–	–
[1], x2 = 0.4603	–	1725400 ± 2700	–	–
[1], x2 = 0.5381	–	1727400 ± 2700	–	–
[1], x2 = 0.6191	–	1729600 ± 2700	–	–
[1], x2 = 0.6973	–	1731600 ± 2700	–	–
[1], x2 = 0.8468	–	1734900 ± 2700	–	–
[1], x2 = 0.928	–	1736500 ± 2700	–	–
[2], x2 = 0.0815	–	–	–	1.43248 ± 0.00021
[2], x2 = 0.1569	–	–	–	1.43014 ± 0.00021
[2], x2 = 0.2322	–	–	–	1.42774 ± 0.00021
[2], x2 = 0.3155	–	–	–	1.425 ± 0.00021
[2], x2 = 0.3526	–	–	–	1.42375 ± 0.00021
[2], x2 = 0.3965	–	–	–	1.42224 ± 0.00021
[2], x2 = 0.4345	–	–	–	1.42091 ± 0.00021
[2], x2 = 0.4742	–	–	–	1.41949 ± 0.00021
[2], x2 = 0.5109	–	–	–	1.41816 ± 0.00021
[2], x2 = 0.5558	–	–	–	1.4165 ± 0.00021
[2], x2 = 0.5858	–	–	–	1.41537 ± 0.00021
[2], x2 = 0.6334	–	–	–	1.41355 ± 0.00021
[2], x2 = 0.6716	–	–	–	1.41206 ± 0.00021
[2], x2 = 0.7127	–	–	–	1.41042 ± 0.00021
[2], x2 = 0.7862	–	–	–	1.4074 ± 0.00021
[2], x2 = 0.8695	–	–	–	1.40385 ± 0.00021
[2], x2 = 0.9509	–	–	–	1.40023 ± 0.00021
[3], x2 = 0.1	-0.000954 ± 0.000194	–	–	–
[3], x2 = 0.2	-0.00204 ± 0.000203	–	–	–
[3], x2 = 0.3	-0.0033 ± 0.000213	–	–	–
[3], x2 = 0.4	-0.00437 ± 0.00022	–	–	–
[3], x2 = 0.5	-0.00521 ± 0.000227	–	–	–
[3], x2 = 0.6	-0.00564 ± 0.000229	–	–	–
[3], x2 = 0.7	-0.00548 ± 0.000229	–	–	–
[3], x2 = 0.8	-0.00463 ± 0.000222	–	–	–
[3], x2 = 0.9	-0.00288 ± 0.00021	–	–	–
[4], x2 = 0.0808	–	–	951.41 ± 0.49	–
[4], x2 = 0.1586	–	–	958.77 ± 0.49	–
[4], x2 = 0.2251	–	–	965.28 ± 0.49	–
[4], x2 = 0.3113	–	–	974.02 ± 0.5	–
[4], x2 = 0.3507	–	–	978.14 ± 0.5	–
[4], x2 = 0.4024	–	–	983.65 ± 0.5	–
[4], x2 = 0.4295	–	–	986.6 ± 0.5	–
[4], x2 = 0.4749	–	–	991.62 ± 0.51	–
[4], x2 = 0.509	–	–	995.47 ± 0.51	–
[4], x2 = 0.5451	–	–	999.61 ± 0.51	–
[4], x2 = 0.5465	–	–	999.76 ± 0.51	–
[4], x2 = 0.5891	–	–	1004.75 ± 0.51	–
[4], x2 = 0.6248	–	–	1009 ± 0.51	–
[4], x2 = 0.6813	–	–	1015.89 ± 0.52	–
[4], x2 = 0.7075	–	–	1019.14 ± 0.52	–
[4], x2 = 0.7891	–	–	1029.57 ± 0.52	–
[4], x2 = 0.8629	–	–	1039.38 ± 0.53	–
